Assay results from EP4745135A1 (Gluetacs Therapeutics (Shanghai) Co., Ltd., priority 2023, dated 2025).

Assays:
[1] = tested on: GSPT1; assay: Western blot, degradation of substrate protein in hPBMCs; type: cell-based, Human; conditions: Western blot, 24 hours of compound treatment, compounds tested at 50 nM and 500 nM (concentration for the table not stated)
[2] = biological target: T1, human Cereblon WT GST-tagged protein (Homo sapiens, UniProt Q96SW2); assay: CRBN-binding affinity, HTRF (CEREBLON BINDING kit); conditions: CRBN binding, HTRF, 3 hours at room temperature; read-out: HTRF IC50
T1 construct: purchased CISBIO 64BDCRBNPEH
T1 sequence (Q96SW2 whole entry): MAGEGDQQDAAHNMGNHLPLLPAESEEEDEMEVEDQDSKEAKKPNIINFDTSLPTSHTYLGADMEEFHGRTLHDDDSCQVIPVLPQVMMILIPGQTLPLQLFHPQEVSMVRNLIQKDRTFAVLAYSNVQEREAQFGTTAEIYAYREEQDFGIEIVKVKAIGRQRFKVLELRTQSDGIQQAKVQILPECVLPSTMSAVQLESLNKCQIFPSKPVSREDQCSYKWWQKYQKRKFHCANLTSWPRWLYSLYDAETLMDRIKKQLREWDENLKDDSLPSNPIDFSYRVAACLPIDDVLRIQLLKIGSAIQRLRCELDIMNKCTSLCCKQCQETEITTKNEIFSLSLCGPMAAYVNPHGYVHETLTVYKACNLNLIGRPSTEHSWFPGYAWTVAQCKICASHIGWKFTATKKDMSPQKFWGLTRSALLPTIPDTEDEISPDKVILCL

[3] = tested on: Human non-small cell lung cancer cell line: NCI-H1975; assay: Tumor cell proliferation inhibition (CellTiter-Meiluncell luminescent cell viability assay); conditions: NCI-H1975, 96 h, read-out: Inhibitory activity (IC50, nM) on tumor cell proliferation, H1975
Experimental: (§1) The tumor cells used herein were cultured in a cell culture medium listed in table 2 at 37°C in an incubator with 5% CO2. Prior to experimentation, all cell lines used were correctly identified by STR profiling, and tested negative for mycoplasma contamination using a mycoplasma detection kit through routine screenings.
(§2) The IC50 values of the compounds of the present disclosure (including the compounds in Table 1 and Examples) were determined using the CellTiter-Meiluncell Luminescent Cell Viability Assay Kit from Dalian Meilun Biotech Co., Ltd. The detailed procedure is as follows: Tumor cells were seeded in 96-well cell culture plates at the densities specified in Table 3. On the following day, the test compounds of the present disclosure were subjected to serial dilution. The dilution can be performed according to one of the following two methods: • (1) The first dilution method: The test compounds of the present disclosure (including the compounds in Table 1 and Examples) were subjected to 5-fold serial dilutions starting from a highest concentration of 2000 µM, resulting in a total of 9 concentrations from high to low (2000, 400, 80, 16, 3.2, 0.64, 0.128, 0.0256, 0.00512 µM). Subsequently, 0.5 µL of the test compound dilution was transferred into the 96-well plate containing the cells, with each well containing 100 µL of cell culture medium. […] Into the 96-well plate, the diluted test compounds and corresponding detection reagents were added, resulting in final test compound concentrations of 500 nM and 10 nM, respectively. The experimental procedure is described below using the diluted 2 µM test compound as an example.
(§3) 0.5 µL of the aforementioned diluted compound of the present disclosure (including the compounds in Table 1 and Examples) was added to the seeded cells in 100 µL of medium, yielding a final test compound concentration of 10 nM. After the cells were treated with the compounds of the present disclosure for a specified period, the cell viability assay reagent was added to the culture medium according to the kit's instructions to determine cell viability. […] All controls were treated using the same procedure as the compounds of the present disclosure. The growth inhibition curves for the compounds of the present disclosure were plotted using Prism GraphPad software, and the IC50 values were calculated therefrom.

[4] = tested on: Human T lymphocytic leukemia cell line: Jurkat; assay: as above; conditions: 96 h; for IC50: read-out: Inhibitory activity (IC50, nM) on tumor cell proliferation, Jurkat
[5] = tested on: Human mantle cell lymphoma cell line: JEKO-1; assay: as above; conditions: JeKo-1, 96 h, read-out: Inhibitory activity (IC50, nM) on tumor cell proliferation, JEKO-1
Experimental: as §1, §2, §3

[6] = tested on: Human multiple myeloma cell (MM.1S); assay: as above; conditions: Homo sapiens, MM1.S, 96 h, read-out: Inhibitory activity (IC50, nM) on tumor cell proliferation, MM.1S
Experimental: as §1, §2, §3

[7] = tested on: Human breast cancer cell (MCF-7); assay: as above; conditions: MCF7, 96 h; for IC50: read-out: Inhibitory activity (IC50, nM) on tumor cell proliferation, MCF7
[8] = tested on: Human gastric cancer cell line: MGC803; assay: as above; conditions: MGC-803, read-out: Inhibitory activity (IC50, nM) on tumor cell proliferation, MGC803
Experimental: as §2, §3

[9] = biological target: T2, IKZF2 (Homo sapiens, UniProt Q96SW2+Q9UKS7); assay: Western blot, degradation of substrate protein in hPBMCs; type: cell-based; conditions: Western blot, 24 hours of compound treatment, compounds tested at 50 nM and 500 nM (concentration for the table not stated)
T2 construct: effects of the compounds of the present disclosure on the expression of target proteins in cells; endogenous in cells; host or cells: human PBMCs (Milecell Biotechnologies)
T2 sequence (Q9UKS7 whole entry): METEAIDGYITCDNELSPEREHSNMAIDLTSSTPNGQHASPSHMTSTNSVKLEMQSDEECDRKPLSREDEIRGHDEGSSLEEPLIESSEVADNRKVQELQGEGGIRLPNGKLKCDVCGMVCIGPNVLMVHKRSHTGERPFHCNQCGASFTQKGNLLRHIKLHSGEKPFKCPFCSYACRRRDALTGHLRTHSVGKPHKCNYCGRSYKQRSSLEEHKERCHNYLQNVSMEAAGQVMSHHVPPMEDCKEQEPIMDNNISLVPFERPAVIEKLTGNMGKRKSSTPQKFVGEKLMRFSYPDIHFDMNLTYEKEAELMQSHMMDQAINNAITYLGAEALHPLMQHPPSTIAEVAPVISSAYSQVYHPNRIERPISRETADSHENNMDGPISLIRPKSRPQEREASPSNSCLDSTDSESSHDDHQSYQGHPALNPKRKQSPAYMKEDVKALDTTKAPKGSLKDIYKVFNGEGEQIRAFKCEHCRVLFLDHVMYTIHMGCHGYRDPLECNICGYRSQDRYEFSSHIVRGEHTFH
T2 sequence (Q96SW2 whole entry): as the sequence (Q96SW2 whole entry) above
T2 sequence (Q16531 whole entry partner): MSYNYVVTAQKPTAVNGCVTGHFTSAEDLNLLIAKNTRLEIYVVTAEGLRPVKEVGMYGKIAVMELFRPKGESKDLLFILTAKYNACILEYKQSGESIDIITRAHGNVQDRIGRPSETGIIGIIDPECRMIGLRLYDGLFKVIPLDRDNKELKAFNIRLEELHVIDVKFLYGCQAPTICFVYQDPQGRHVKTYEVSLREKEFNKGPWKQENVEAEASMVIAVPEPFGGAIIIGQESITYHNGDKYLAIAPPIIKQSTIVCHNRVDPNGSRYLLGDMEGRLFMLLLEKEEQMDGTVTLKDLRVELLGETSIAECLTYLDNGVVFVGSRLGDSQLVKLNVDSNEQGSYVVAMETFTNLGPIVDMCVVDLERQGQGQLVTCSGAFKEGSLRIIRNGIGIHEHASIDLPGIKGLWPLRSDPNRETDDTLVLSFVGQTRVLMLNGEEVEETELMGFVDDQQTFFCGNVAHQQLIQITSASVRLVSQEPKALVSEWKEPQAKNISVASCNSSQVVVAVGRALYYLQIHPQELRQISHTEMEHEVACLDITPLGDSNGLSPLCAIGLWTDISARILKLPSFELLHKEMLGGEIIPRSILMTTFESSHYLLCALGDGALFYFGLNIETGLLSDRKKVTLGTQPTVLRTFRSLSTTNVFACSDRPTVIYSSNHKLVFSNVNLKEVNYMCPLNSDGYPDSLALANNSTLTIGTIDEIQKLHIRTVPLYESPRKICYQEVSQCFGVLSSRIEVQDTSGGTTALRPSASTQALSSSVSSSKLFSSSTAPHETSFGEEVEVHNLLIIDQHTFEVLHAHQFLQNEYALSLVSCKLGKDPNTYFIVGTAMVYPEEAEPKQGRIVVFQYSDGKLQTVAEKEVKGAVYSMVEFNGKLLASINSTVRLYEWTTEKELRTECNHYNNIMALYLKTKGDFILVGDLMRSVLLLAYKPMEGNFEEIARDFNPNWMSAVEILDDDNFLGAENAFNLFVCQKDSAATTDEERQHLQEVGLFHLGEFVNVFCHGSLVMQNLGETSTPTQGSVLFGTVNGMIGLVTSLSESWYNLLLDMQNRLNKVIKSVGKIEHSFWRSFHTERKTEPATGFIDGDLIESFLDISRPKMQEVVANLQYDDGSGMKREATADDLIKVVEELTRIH

[10] = biological target: T3, WEE1 (Homo sapiens, UniProt P30291+Q96SW2); assay: as above; type: cell-based; conditions: Western blot, 24 hours of compound treatment, compounds tested at 50 nM and 500 nM (concentration for the table not stated)
T3 construct: effects of the compounds of the present disclosure on the expression of target proteins in cells; endogenous in cells; host or cells: human PBMCs (Milecell Biotechnologies)
T3 sequence (P30291 whole entry): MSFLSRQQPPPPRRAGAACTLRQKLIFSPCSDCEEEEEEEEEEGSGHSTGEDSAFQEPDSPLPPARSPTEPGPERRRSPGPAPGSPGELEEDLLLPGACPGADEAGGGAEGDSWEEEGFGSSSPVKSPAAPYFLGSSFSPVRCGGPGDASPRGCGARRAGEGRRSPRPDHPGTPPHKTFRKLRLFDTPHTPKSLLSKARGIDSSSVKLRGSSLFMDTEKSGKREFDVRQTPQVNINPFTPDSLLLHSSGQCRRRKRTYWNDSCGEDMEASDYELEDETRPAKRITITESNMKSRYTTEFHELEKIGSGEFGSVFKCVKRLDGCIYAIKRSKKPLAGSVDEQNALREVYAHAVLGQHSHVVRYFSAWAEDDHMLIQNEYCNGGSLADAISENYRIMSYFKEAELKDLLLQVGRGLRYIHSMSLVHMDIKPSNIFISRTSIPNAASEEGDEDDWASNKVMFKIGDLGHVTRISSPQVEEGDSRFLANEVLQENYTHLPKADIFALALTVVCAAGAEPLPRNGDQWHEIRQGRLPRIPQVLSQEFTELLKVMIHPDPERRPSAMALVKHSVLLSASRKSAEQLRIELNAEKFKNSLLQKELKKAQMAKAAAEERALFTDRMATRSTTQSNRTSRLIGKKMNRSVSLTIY
T3 sequence (Q96SW2 whole entry): as the sequence (Q96SW2 whole entry) above
T3 sequence (Q16531 whole entry partner): as the sequence (Q16531 whole entry partner) above

[11] = biological target: T4, CK1α (Homo sapiens, UniProt P48729+Q96SW2); assay: as above; type: cell-based; conditions: Western blot, 24 hours of compound treatment, compounds tested at 50 nM and 500 nM (concentration for the table not stated)
T4 construct: effects of the compounds of the present disclosure on the expression of target proteins in cells; endogenous in cells; host or cells: human PBMCs (Milecell Biotechnologies)
T4 sequence (P48729 whole entry): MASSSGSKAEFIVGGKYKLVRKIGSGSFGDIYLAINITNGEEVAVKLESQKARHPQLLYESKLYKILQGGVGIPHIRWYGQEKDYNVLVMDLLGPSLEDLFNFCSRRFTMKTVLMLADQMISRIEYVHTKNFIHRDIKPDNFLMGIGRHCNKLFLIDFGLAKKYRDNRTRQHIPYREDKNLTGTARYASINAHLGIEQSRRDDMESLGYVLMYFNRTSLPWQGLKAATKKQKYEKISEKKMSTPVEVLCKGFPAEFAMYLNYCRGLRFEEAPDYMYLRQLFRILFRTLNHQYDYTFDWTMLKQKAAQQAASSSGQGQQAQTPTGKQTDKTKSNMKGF
T4 sequence (Q96SW2 whole entry): as the sequence (Q96SW2 whole entry) above
T4 sequence (Q16531 whole entry partner): as the sequence (Q16531 whole entry partner) above

[12] = biological target: T5, IKZF3 (Homo sapiens, UniProt Q96SW2+Q9UKT9); assay: as above; type: cell-based; conditions: Western blot, 24 hours of compound treatment, compounds tested at 50 nM and 500 nM (concentration for the table not stated)
T5 construct: effects of the compounds of the present disclosure on the expression of target proteins in cells; endogenous in cells; host or cells: human PBMCs (Milecell Biotechnologies)
T5 sequence (Q9UKT9 whole entry): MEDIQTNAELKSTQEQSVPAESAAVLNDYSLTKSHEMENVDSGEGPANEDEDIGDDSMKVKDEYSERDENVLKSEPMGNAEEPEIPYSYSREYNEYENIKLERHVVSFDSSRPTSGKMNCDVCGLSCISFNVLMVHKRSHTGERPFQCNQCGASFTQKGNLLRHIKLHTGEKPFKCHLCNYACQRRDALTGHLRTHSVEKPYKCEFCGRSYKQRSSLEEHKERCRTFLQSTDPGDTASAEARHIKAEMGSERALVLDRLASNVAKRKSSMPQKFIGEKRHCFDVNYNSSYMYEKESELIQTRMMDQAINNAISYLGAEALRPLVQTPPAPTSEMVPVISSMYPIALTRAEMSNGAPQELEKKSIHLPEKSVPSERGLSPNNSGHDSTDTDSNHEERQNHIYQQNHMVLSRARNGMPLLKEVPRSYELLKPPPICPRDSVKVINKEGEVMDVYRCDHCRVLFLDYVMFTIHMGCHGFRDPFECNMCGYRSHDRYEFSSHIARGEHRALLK
T5 sequence (Q96SW2 whole entry): as the sequence (Q96SW2 whole entry) above
T5 sequence (Q16531 whole entry partner): as the sequence (Q16531 whole entry partner) above

[13] = biological target: T6, IKZF1 (Homo sapiens, UniProt Q13422+Q96SW2); assay: as above; type: cell-based; conditions: Western blot, 24 hours of compound treatment, compounds tested at 50 nM and 500 nM (concentration for the table not stated)
T6 construct: effects of the compounds of the present disclosure on the expression of target proteins in cells; endogenous in cells; host or cells: human PBMCs (Milecell Biotechnologies)
T6 sequence (Q13422 whole entry): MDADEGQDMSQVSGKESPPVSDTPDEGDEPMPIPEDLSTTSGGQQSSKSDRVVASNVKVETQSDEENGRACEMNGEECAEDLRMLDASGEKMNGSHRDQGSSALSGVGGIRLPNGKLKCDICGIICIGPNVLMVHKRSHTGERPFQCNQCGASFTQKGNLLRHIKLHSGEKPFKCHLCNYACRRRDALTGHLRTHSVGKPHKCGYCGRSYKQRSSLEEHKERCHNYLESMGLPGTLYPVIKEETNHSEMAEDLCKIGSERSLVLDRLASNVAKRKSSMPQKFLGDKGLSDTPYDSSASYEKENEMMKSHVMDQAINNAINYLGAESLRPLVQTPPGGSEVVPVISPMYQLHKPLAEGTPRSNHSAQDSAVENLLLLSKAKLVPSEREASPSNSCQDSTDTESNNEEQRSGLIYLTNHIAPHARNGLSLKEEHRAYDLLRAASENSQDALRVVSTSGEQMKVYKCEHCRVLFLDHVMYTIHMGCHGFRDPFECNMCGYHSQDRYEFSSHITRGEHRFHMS
T6 sequence (Q96SW2 whole entry): as the sequence (Q96SW2 whole entry) above
T6 sequence (Q16531 whole entry partner): as the sequence (Q16531 whole entry partner) above

[14] = tested on: Human diffuse large B-cell lymphoma cell line: TMD8; assay: Tumor cell proliferation inhibition (CellTiter-Meiluncell luminescent cell viability assay); conditions: TMD8, 96 h, read-out: Inhibitory activity (IC50, nM) on tumor cell proliferation, TMD8
Experimental: as §1, §2
0.5 µL of the aforementioned diluted compound of the present disclosure (including the compounds in Table 1 and Examples) was added to the seeded cells in 100 µL of medium, yielding a final test compound concentration of 10 nM. […] The growth inhibition curves for the compounds of the present disclosure were plotted using Prism GraphPad software, and the IC50 values were calculated therefrom.

[15] = tested on: Human multiple myeloma peripheral blood B lymphocyte cell (RPMI-8226); assay: as above; conditions: RPMI-8226, 96 h; for IC50: read-out: Inhibitory activity (IC50, nM) on tumor cell proliferation, RPMI-8226
[16] = tested on: Human malignant melanoma cell line: A375; assay: as above; conditions: A-375, 96 h
Experimental: as §1, §2, §3

[17] = tested on: Human myeloid monocytic leukemia cell (MV-4-11); assay: as above; conditions: MV4-11, 96 h
[18] = tested on: Human colon cancer cell line: SW620; assay: as above; conditions: SW-620, 96 h
Experimental: as §1, §2, §3

[19] = tested on: Human T cell acute lymphoblastic leukemia cell (CCRF-CEM); assay: as above; conditions: 96 h
Experimental: as §1, §2, §3

[20] = tested on: Human monocytic leukemia cell line: THP-1; assay: as above; conditions: THP-1, 96 h
Experimental: as §1, §2, §3

[21] = tested on: Human acute myeloid leukemia cell line: Kasumi-1; assay: as above; conditions: Kasumi 1, 96 h
[22] = read-out: Inhibition Rate at 10 nM (%)
[23] = read-out: Inhibition Rate at 500 nM (%)

IC50 [3] | IC50 [4] | IC50 [5] | IC50 [6] | IC50 [7] | IC50 [8] | IC50 [14] | IC50 [15] | SMILES | GSPT1 substrate protein remaining % [1] | IC50 [2] | IKZF2 substrate protein remaining % [9] | Wee1 substrate protein remaining % [10] | CK1α substrate protein remaining % [11] | IKZF3 substrate protein remaining % [12] | IKZF 1 substrate protein remaining % [13] | other results
50 to 100 nM | 10 to 50 nM | 50 to 100 nM | 5 to 10 nM | 100 to 500 nM | 100 to 500 nM |  |  | O=C1CCC(N2Cc3cc(CN4CCC(c5cccc(Cl)c5Cl)CC4)ccc3C2=S)C(=O)N1 (stereo not drawn) [GT-05150, 3-(5-((4-(2,3-dichlorophenyl)piperidin-1-yl)methyl)-1-thioxoisoindolin-2-yl)piperidine-2,6-dione] | A (0% ≤ substrate protein remaining % ≤ 80%) | 500 to 1000 nM | A (0% ≤ substrate protein remaining % ≤ 80%) | A (0% ≤ substrate protein remaining % ≤ 80%) | B (80%< substrate protein remaining %≤ 100%) | B (80%< substrate protein remaining %≤ 100%) | A (0% ≤ substrate protein remaining % ≤ 80%) | 
 |  |  | < 5 nM |  |  | 100 to 500 nM | 10 to 50 nM | Cn1cc(C2=CCN(Cc3ccc4c(c3)CN(C3CCC(=O)NC3=O)C4=S)CC2)c2ccc(F)cc21 (stereo not drawn) [GT-05247, 3-(5-((4-(6-fluoro-1-methyl-1H-indol-3-yl)-3,6-dihydropyridin-1(2H)-yl)methyl)-1-thioxoisoindolin-2-yl)piperidine-2,6-dione] | A (0% ≤ substrate protein remaining % ≤ 80%) | 100 to 500 nM | A (0% ≤ substrate protein remaining % ≤ 80%) | A (0% ≤ substrate protein remaining % ≤ 80%) | A (0% ≤ substrate protein remaining % ≤ 80%) | A (0% ≤ substrate protein remaining % ≤ 80%) | B (80%< substrate protein remaining %≤ 100%) | 
> 10000 nM | > 10000 nM | 5000 to 10000 nM | 500 to 1000 nM | > 10000 nM | > 10000 nM | > 10000 nM | 1000 to 5000 nM | Nc1cccc2c1C(=O)N(C1CCC(=O)NC1=O)C2=O (stereo not drawn) [pomalidomide, reference compound] |  |  |  |  |  |  |  | inhibition at 0.01 µM [16, 22]: 10 to 20%; inhibition at 0.5 µM [16, 23]: 5 to 10%; inhibition at 0.01 µM [17, 22]: 18 to 25%; inhibition at 0.5 µM [17, 23]: 10 to 18%; inhibition at 0.01 µM [18, 22]: 20 to 30%; inhibition at 0.5 µM [18, 23]: 20 to 30%; inhibition at 0.01 µM [19, 22]: 0 to 5%; inhibition at 0.5 µM [19, 23]: 0 to 5%; inhibition at 0.01 µM [4, 22]: 10 to 20%; inhibition at 0.5 µM [4, 23]: 10 to 20%; inhibition at 0.01 µM [20, 22]: 10 to 20%; inhibition at 0.5 µM [20, 23]: 10 to 20%; inhibition at 0.01 µM [21, 22]: -10 to -5%; inhibition at 0.5 µM [21, 23]: -5 to 0%; inhibition at 0.01 µM [7, 22]: 5 to 10%; inhibition at 0.5 µM [7, 23]: 0 to 5%; inhibition at 0.01 µM [15, 22]: 10 to 20%; inhibition at 0.5 µM [15, 23]: 30 to 40%

SMILES | IC50 [3] | IC50 [4] | IC50 [5] | IC50 [6] | IC50 [7] | IC50 [8] | IC50 [14] | IC50 [15] | GSPT1 substrate protein remaining % [1] | IC50 [2] | IKZF2 substrate protein remaining % [9] | Wee1 substrate protein remaining % [10] | CK1α substrate protein remaining % [11] | IKZF3 substrate protein remaining % [12] | IKZF 1 substrate protein remaining % [13] | other results
O=C1CCC(N2Cc3cc(CN4CC=C(c5cccc(Cl)c5Cl)CC4)ccc3C2=S)C(=O)N1 (stereo not drawn) [GT-05149, 3-(5-((4-(2,3-dichlorophenyl)-3,6-dihydropyridin-1(2H)-yl)methyl)-1-thioxoisoindolin-2-yl)piperidine-2,6-dione] | 10 to 50 nM | 5 to 10 nM | 5 to 10 nM | < 5 nM | 10 to 50 nM | 10 to 50 nM |  |  | A (0% ≤ substrate protein remaining % ≤ 80%) | 100 to 500 nM | A (0% ≤ substrate protein remaining % ≤ 80%) | A (0% ≤ substrate protein remaining % ≤ 80%) | B (80%< substrate protein remaining %≤ 100%) | A (0% ≤ substrate protein remaining % ≤ 80%) | A (0% ≤ substrate protein remaining % ≤ 80%) | 
O=C1CCC(N2Cc3cc(CN4CCC(c5c[nH]c6cc(F)ccc56)CC4)ccc3C2=S)C(=O)N1 (stereo not drawn) [GT-05243, 3-(5-((4-(6-fluoro-1H-indol-3-yl)piperidin-1-yl)methyl)-1-thioxoisoindolin-2-yl)piperidine-2,6-dione] |  |  |  | < 5 nM |  |  | 100 to 500 nM | 10 to 50 nM | A (0% ≤ substrate protein remaining % ≤ 80%) | < 100 nM | A (0% ≤ substrate protein remaining % ≤ 80%) | A (0% ≤ substrate protein remaining % ≤ 80%) | B (80%< substrate protein remaining %≤ 100%) | A (0% ≤ substrate protein remaining % ≤ 80%) | B (80%< substrate protein remaining %≤ 100%) | 
